Patent publication US6552196B2, “Quinolone carboxylic acid derivatives” (Dong Wha Pharmaceutical Industrial Co., Ltd., priority 1997, dated 2003)

Tests used:
Format in all cases: cell-based
[1] = tested on: Pseudomonas aeruginosa 1771; assay: In vitro antibacterial activity (MIC), agar dilution; conditions: 2-fold agar dilution, Muller-Hinton agar, 18 hours at 37° C., read-out: minimum inhibitory concentration (MIC)
Protocol: (§1) 10^7 cfu/ml of bacteria were inoculated and cultured for 18 hours at 37° C. and then the antibacterial activities were measured. For the methicillin resistant strains the activities were measured after 48 hours of cultivation at 30° C. Hoechst Standard strains were used for the testings.

[2] = tested on: Staphylococcus aureus SG511; assay: as above; conditions: 2-fold agar dilution, Muller-Hinton agar, 18 hours at 37° C., read-out: minimum inhibitory concentration (MIC)
Protocol: as §1

[3] = tested on: Pseudomonas aeruginosa 1771M; assay: as above; conditions: Pseudomonas aeruginosa, 1771M, 18 h, read-out: minimum inhibitory concentration (MIC)
Protocol: as §1

[4] = tested on: Staphylococcus aureus 503; assay: as above; conditions: 2-fold agar dilution, Muller-Hinton agar, 18 hours at 37° C., read-out: minimum inhibitory concentration (MIC)
Protocol: as §1

Klebsiella oxytoca 1082E = assay: as above; conditions: 2-fold agar dilution, Muller-Hinton agar, 18 hours at 37° C., read-out: minimum inhibitory concentration (MIC)
Protocol: as §1

Salmonella typhimurium = assay: as above; conditions: Salmonella enterica, 2-fold agar dilution, Muller-Hinton agar, 18 hours at 37° C., read-out: minimum inhibitory concentration (MIC)
Protocol: as §1

[5] = tested on: Klebsiella aerogenes 1522E; assay: as above; conditions: 2-fold agar dilution, Muller-Hinton agar, 18 hours at 37° C., read-out: minimum inhibitory concentration (MIC)
Protocol: as §1

[6] = tested on: Staphylococcus aureus 285; assay: as above; conditions: 2-fold agar dilution, Muller-Hinton agar, 18 hours at 37° C., read-out: minimum inhibitory concentration (MIC)
Protocol: as §1

[7] = tested on: Enterobacter clocae 1321E; assay: as above; conditions: 2-fold agar dilution, Muller-Hinton agar, 18 hours at 37° C., read-out: minimum inhibitory concentration (MIC)
Protocol: as §1

Enterobacter clocae P99 = assay: as above; conditions: 2-fold agar dilution, Muller-Hinton agar, 18 hours at 37° C., read-out: minimum inhibitory concentration (MIC)
Protocol: as §1

[8] = tested on: Streptococcus faecium MD 8b; assay: as above; conditions: Enterococcus faecium, MD8B, 2-fold agar dilution, Muller-Hinton agar, 18 hours at 37° C., read-out: minimum inhibitory concentration (MIC)
Protocol: as §1

[9] = tested on: Pseudomonas aeruginosa 1592E; assay: as above; conditions: 2-fold agar dilution, Muller-Hinton agar, 18 hours at 37° C., read-out: minimum inhibitory concentration (MIC)
Protocol: as §1

[10] = tested on: Pseudomonas aeruginosa 9027; assay: as above; conditions: 2-fold agar dilution, Muller-Hinton agar, 18 hours at 37° C., read-out: minimum inhibitory concentration (MIC)
Protocol: as §1

Esherichia coli 078 = assay: as above; conditions: 2-fold agar dilution, Muller-Hinton agar, 18 hours at 37° C., read-out: minimum inhibitory concentration (MIC)
Protocol: as §1

Esherichia coli DC0 = assay: as above; conditions: 2-fold agar dilution, Muller-Hinton agar, 18 hours at 37° C., read-out: minimum inhibitory concentration (MIC)
Protocol: as §1

[11] = tested on: Streptococcus pyogens 308A; assay: as above; conditions: 2-fold agar dilution, Muller-Hinton agar, 18 hours at 37° C., read-out: minimum inhibitory concentration (MIC)
Protocol: as §1

[12] = tested on: Streptococcus pyogens 77A; assay: as above; conditions: 2-fold agar dilution, Muller-Hinton agar, 18 hours at 37° C., read-out: minimum inhibitory concentration (MIC)
Protocol: as §1

Esherichia coli TEM = assay: as above; conditions: 2-fold agar dilution, Muller-Hinton agar, 18 hours at 37° C., read-out: minimum inhibitory concentration (MIC)
Protocol: as §1

Esherichia coli 1507E = assay: as above; conditions: 2-fold agar dilution, Muller-Hinton agar, 18 hours at 37° C., read-out: minimum inhibitory concentration (MIC)
Protocol: as §1

[13] = tested on: Staphylococcus aureus 121E; assay: In vitro antibacterial activity against resistant strains (MIC); conditions: resistant strain Staphylococcus aureus 121E; 2-fold agar dilution; methicillin resistant strains 48 hours at 30° C.; read-out: minimum inhibitory concentration (MIC)
Protocol: as §1

[14] = tested on: Staphylococcus aureus 695E; assay: as above; conditions: resistant strain Staphylococcus aureus 695E; 2-fold agar dilution; methicillin resistant strains 48 hours at 30° C.; read-out: minimum inhibitory concentration (MIC)
Protocol: as §1

[15] = tested on: Staphylococcus aureus 88E; assay: as above; conditions: resistant strain Staphylococcus aureus 88E; 2-fold agar dilution; methicillin resistant strains 48 hours at 30° C.; read-out: minimum inhibitory concentration (MIC)
Protocol: as §1

[16] = tested on: Staphylococcus aureus 694E; assay: as above; conditions: resistant strain Staphylococcus aureus 694E; 2-fold agar dilution; methicillin resistant strains 48 hours at 30° C.; read-out: minimum inhibitory concentration (MIC)
Protocol: as §1

[17] = tested on: Staphylococcus aureus 208E; assay: as above; conditions: resistant strain Staphylococcus aureus 208E; 2-fold agar dilution; methicillin resistant strains 48 hours at 30° C.; read-out: minimum inhibitory concentration (MIC)
Protocol: as §1

[18] = tested on: Staphylococcus aureus 693E; assay: as above; conditions: resistant strain Staphylococcus aureus 693E; 2-fold agar dilution; methicillin resistant strains 48 hours at 30° C.; read-out: minimum inhibitory concentration (MIC)
Protocol: as §1

[19] = tested on: Staphylococcus aureus 293; assay: as above; conditions: resistant strain Staphylococcus aureus 293; 2-fold agar dilution; methicillin resistant strains 48 hours at 30° C.; read-out: minimum inhibitory concentration (MIC)
Protocol: as §1

[20] = tested on: Staphylococcus aureus 179; assay: as above; conditions: resistant strain Staphylococcus aureus 179; 2-fold agar dilution; methicillin resistant strains 48 hours at 30° C.; read-out: minimum inhibitory concentration (MIC)
Protocol: as §1

[21] = tested on: Staphylococcus aureus 701E; assay: as above; conditions: resistant strain Staphylococcus aureus 701E; 2-fold agar dilution; methicillin resistant strains 48 hours at 30° C.; read-out: minimum inhibitory concentration (MIC)
Protocol: as §1

[22] = tested on: Staphylococcus aureus 256E; assay: as above; conditions: resistant strain Staphylococcus aureus 256E; 2-fold agar dilution; methicillin resistant strains 48 hours at 30° C.; read-out: minimum inhibitory concentration (MIC)
Protocol: as §1

[23] = tested on: Staphylococcus aureus 303; assay: as above; conditions: resistant strain Staphylococcus aureus 303; 2-fold agar dilution; methicillin resistant strains 48 hours at 30° C.; read-out: minimum inhibitory concentration (MIC)
Protocol: as §1

[24] = tested on: Staphylococcus aureus 692E; assay: as above; conditions: resistant strain Staphylococcus aureus 692E; 2-fold agar dilution; methicillin resistant strains 48 hours at 30° C.; read-out: minimum inhibitory concentration (MIC)
Protocol: as §1

[25] = tested on: Staphylococcus aureus 690E; assay: as above; conditions: resistant strain Staphylococcus aureus 690E; 2-fold agar dilution; methicillin resistant strains 48 hours at 30° C.; read-out: minimum inhibitory concentration (MIC)
Protocol: as §1

[26] = tested on: Staphylococcus aureus 703E; assay: as above; conditions: resistant strain Staphylococcus aureus 703E; 2-fold agar dilution; methicillin resistant strains 48 hours at 30° C.; read-out: minimum inhibitory concentration (MIC)
Protocol: as §1

[27] = tested on: Staphylococcus epidermidis 178; assay: as above; conditions: resistant strain Staphylococcus epidermidis 178; 2-fold agar dilution; methicillin resistant strains 48 hours at 30° C.; read-out: minimum inhibitory concentration (MIC)
Protocol: as §1

[28] = tested on: Staphylococcus aureus 8236; assay: as above; conditions: resistant strain Staphylococcus aureus 8236; 2-fold agar dilution; methicillin resistant strains 48 hours at 30° C.; read-out: minimum inhibitory concentration (MIC)
Protocol: as §1

[29] = tested on: Staphylococcus aureus 241; assay: as above; conditions: resistant strain Staphylococcus aureus 241; 2-fold agar dilution; methicillin resistant strains 48 hours at 30° C.; read-out: minimum inhibitory concentration (MIC)
Protocol: as §1

[30] = tested on: Staphylococcus aureus 697E; assay: as above; conditions: resistant strain Staphylococcus aureus 697E; 2-fold agar dilution; methicillin resistant strains 48 hours at 30° C.; read-out: minimum inhibitory concentration (MIC)
Protocol: as §1

[31] = tested on: Staphylococcus epidermidis 291; assay: as above; conditions: resistant strain Staphylococcus epidermidis 291; 2-fold agar dilution; methicillin resistant strains 48 hours at 30° C.; read-out: minimum inhibitory concentration (MIC)
Protocol: as §1

## CCON=C1CN(c2c(F)c(N)c3c(=O)c(C(=O)O)cn(C4CC4)c3c2F)CC12CNC2.CS(=O)(=O)O [Example 9, 1-Cyclopropyl-5-amino-6,8-difluoro-7-[8-(ethoxyimino)-2,6-diazaspiro[3,4]oct-6-yl]-4-oxo-1,4-dihydro-3-quinolinecarboxylic acid methanesulfonate]
[1]
  MIC: 0.781 µg/mL
[2]
  MIC: < 0.002 µg/mL
[3]
  MIC: 0.391 µg/mL
[4]
  MIC: < 0.002 µg/mL
Klebsiella oxytoca 1082E
  MIC: < 0.002 µg/mL
Salmonella typhimurium
  MIC: 0.007 µg/mL
[5]
  MIC: 0.049 µg/mL
[6]
  MIC: 0.007 µg/mL
[7]
  MIC: 0.007 µg/mL
Enterobacter clocae P99
  MIC: 0.007 µg/mL
[8]
  MIC: 0.049 µg/mL
[9]
  MIC: 0.781 µg/mL
[10]
  MIC: 0.781 µg/mL
Esherichia coli 078
  MIC: 0.004 µg/mL
Esherichia coli DC0
  MIC: 0.195 µg/mL
[11]
  MIC: 0.025 µg/mL
[12]
  MIC: 0.004 µg/mL
Esherichia coli TEM
  MIC: 0.013 µg/mL
Esherichia coli 1507E
  MIC: 0.013 µg/mL
[13]
  MIC: 0.013 µg/mL
[14]
  MIC: 0.013 µg/mL
[15]
  MIC: 0.007 µg/mL
[16]
  MIC: 0.013 µg/mL
[17]
  MIC: 0.013 µg/mL
[18]
  MIC: 0.013 µg/mL
[19]
  MIC: 0.098 µg/mL
[20]
  MIC: 0.098 µg/mL
[21]
  MIC: 0.013 µg/mL
[22]
  MIC: 0.013 µg/mL
[23]
  MIC: 0.098 µg/mL
[24]
  MIC: 0.007 µg/mL
[25]
  MIC: 0.007 µg/mL
[26]
  MIC: 0.013 µg/mL
[27]
  MIC: 0.391 µg/mL
[28]
  MIC: 0.098 µg/mL
[29]
  MIC: 0.098 µg/mL
[30]
  MIC: 0.004 µg/mL
[31]
  MIC: 0.391 µg/mL
